Experiment [1] can be described thus: Determination of aldehyde capture rate (nonenal as model aldehyde, HPLC quantification). The note with it: for Aldehyde consumption (100%): 0.05 mM compound, 0.025 mM nonenal, room temperature; for Capture rate (slope of the capture curve per unit time): higher absolute value of the slope = higher capture rate. Here is the method:
In the aldehyde capture test disclosed in the present invention, the stable lipid metabolite, nonenal, was used as the model aldehyde to react with the compound of the Example. The specific protocol was as follows.
0.05 mM of the compounds of the Examples of the present invention were precisely weighed respectively and dissolved in 1.2 mL of a mixed solution (v/v=1:1) of triolein (Aladdin, G105172-5g) and linoleic acid (Aladdin, L100442-25g), respectively. 2.5 mL of PBS (Solarbio, P1020) solution containing 20% Captisol® (Aladdin, Cl25030-25 g) was added, and the solution was stirred at room temperature overnight. After the example compound was completely dissolved, 0.025 mM nonenal (Sigma, 255653-5G) was added, and the solution was stirred vigorously at room temperature. […] The solution was mixed vigorously by vortex for 2 minutes, and centrifuged at a low speed of 1000 r/min for 3 minutes. The supernatant was transferred to an injection vial. The nonenal in the reaction mixture was analyzed quantitatively by high performance liquid chromatography. The adduct resulted from the example compound of the present invention and nonenal was analyzed qualitatively by high performance liquid chromatography-mass spectrometry.
Liquid Chromatograph: Waters I Class;
Column: ACQUITY UPLC HSS T3 1.8 μm;
Column temperature: 40° C.;
Liquid chromatography condition: mobile phase A: acetonitrile containing 0.1% formic acid; B: water containing 0.1% formic acid;
Injection volume: 0.5 mL.
Gradient of the mobile phases: […]
In the developed detection method, the retention time of the model aldehyde nonenal was 2.42 minutes. • Mass spectrometry conditions: • Mass spectrometer: Waters TQ-S micro • Ion source: ESI^+ • Capillary voltage: 0.5 kV • Cone voltage: 10V • Source temperature: 150° C. • Degassing temperature: 500° C., degassing flow: 1000 L/Hr • SIM mode • m/z: 225.24 [(mExample 1−OH)+H]^+, 365.42 [madduct 1+H]^+
The time-varying diagram of the capture reaction of the compounds of the examples of the present invention to nonenal is shown in FIG. 1.

Experiment [2] concerns allergic conjunctivitis animal model. Nature of the experiment: Therapeutic effect in C48/80-induced allergic conjunctivitis animal model. The class given is in vivo, Female Wistar rats. The note with it: Wistar rats, 10 μL per eye, examined 20 minutes after administration. The source says:
C48/80 is a polymer formed by the condensation of N-methyl-p-methoxyphenethylamine with formaldehyde, which acts directly on G protein and induces mast cell degranulation. After degranulation, the mast cell releases active substances such as histamine and kinin, which can cause acute type I allergic reactions such as telangiectasia and enhanced permeability. It can cause allergic conjunctivitis if applied topically to the ocular surface.
Female Wistar rats were used as the research subjects. Wistar rats (Vital River) were randomly divided into groups (5 animals per group, a total of 10 eyes). The groups are as follows: normal control group, model control group, positive drug group, and example administration group. The inflammation model was established in these groups except for the normal control group. Emedastine Difumarate Eye Drops (Emadine®, Alcon, H20181192) was used as the positive drug. Model establishment, administration and evaluation processes were as follows. […]
After 10 minutes of stimulation, different drug treatments were carried out according to the group settings. […] The clinical score was evaluated individually on the eyes of each animal according to the McDonald-Shadduck scoring system (GB/T 28538-2012). […]

In experiment [3] the test system is noninfectious uveitis animal model. As to the kind of experiment: Therapeutic effect in lipopolysaccharide-induced noninfectious uveitis animal model (eye drops). Format: in vivo, Female lewis rats. Here is the method: Female lewis rats were used as the research subjects. Lewis rats (Vital River) were randomly divided into groups (4 animals per group, a total of 8 eyes). The groups are as follows: normal control group, model control group, and example administration group. The inflammation model was established in these groups except for the normal control group.
Formulation of eye drops: • (1) Formulation of drug vehicle stock solution: […] of Na2HPO4.12H2O (Xilong Scientific, 9009012-01-09), 19 mg of NaH2PO4.2H2O (Xilong Scientific, 9009013-01-09) and 9500 mg of β-cyclodextrin (Sigma, E1930253) were precisely weighed and dissolved in 30 mL sterile water for injection (Beijing CR Double-Crane), followed by addition of […] of PEG-400 (Solarbio, 222U011). The solution was mixed well, and made up to 50 mL with water for injection. • (2) Formulation of drug solution: 10 mg of the compound of Example 2 of the present invention was weighed and dissolved in 1 mL of the vehicle stock solution, and the resulting solution was made up to 2 mL with water for injection. The content of each substance is as follows: Na2HPO4.12H2O 0.83%, NaH2PO4.2H2O 0.017%, β-cyclodextrin 9.5%, PEG-400 5.0%, active compound 0.5%. • (3) The pH value of the formulated drug solution was determined by pH test paper. If the pH value was not within 7.3±0.05, then it was adjusted to this range with 1 N HCl or 1 N NaOH. […]
The animal model was a noninfectious uveitis animal model established by intraperitoneal injection of lipopolysaccharide (derived from Escherichia coli, 055:B5, Sigma, L2880-100MG, injection dose: 2 mg/kg). […] The ocular inflammation of the animals in each group was examined with a slit lamp microscope (Jiangxi Jiangfeng, LYL-S), and evaluated according to the McDonald-Shadduck scoring system (GB/T 28538-2012).
The animals were sacrificed, and the bilateral eyeballs were enucleated. […] Quantitative analysis of total protein in aqueous humor was performed on the supernatant by a BCA protein quantification kit (Beyotime, P0010). […]

For the molecule `CC(C)(O)c1cc2c(cc1N)Oc1ccccc1O2` [Example 4, 2-(3-Aminodibenzo[b,e][1,4]dioxin-2-yl)propan-2-ol], in experiment [1] (135 minutes), the “Aldehyde consumption (100%)” value came to 38.33% and the “Capture rate (slope of the capture curve per unit time)” value is given as −0.27. In addition, in experiment [1] (180 minutes), the “Aldehyde consumption (100%)” value stood at 48.10% and the “Capture rate (slope of the capture curve per unit time)” value is on record as −0.23. For the same molecule, the “Therapeutic effect on allergic conjunctivitis (McDonald-Shadduck score, FIG. 2, in words)” value in experiment [2] is “good therapeutic effect”.
`Cn1c2ccccc2c2cc(N)c(C(C)(C)O)nc21` [Example 2, 2-(3-Amino-9-methyl-9H-pyrido[2,3-b]indol-2-yl)propan-2-ol]: in experiment [3] (0.5% eye drops, 20 μL/eye, 24 hours after LPS modeling, mean ± standard deviation, model control 17.0 ± 6.4, normal control 4.5 ± 0.8), the “Ocular score (McDonald-Shadduck ocular inflammation score)” value is 8.6 ± 1.1. The “Protein concentration in aqueous humor” value in experiment [3] (0.5% eye drops, 20 μL/eye, 24 hours after LPS modeling, mean ± standard deviation, model control 1062.7 ± 423.6, normal control 225.5 ± 65.4) stood at 376.4 ± 164.0 µg/mL. For the same molecule, the “Therapeutic effect in ocular inflammation animal model (in words)” value in experiment [3] (LPS-induced uveitis, Lewis rats, eye drops) is reported as “showing a therapeutic effect”. In addition, in experiment [1] (135 minutes), the “Aldehyde consumption (100%)” value was 43.48% and the “Capture rate (slope of the capture curve per unit time)” value was −0.34. Also, in experiment [1] (180 minutes), the “Aldehyde consumption (100%)” value is listed as 57.75% and the “Capture rate (slope of the capture curve per unit time)” value is recorded as −0.31.

Source of the values: patent publication US20240092744A1, “TRICYCLIC COMPOUND, AND PREPARATION METHOD THEREFOR AND MEDICAL USE THEREOF” (THE NATIONAL INSTITUTES OF PHARMACEUTICAL R&D CO., LTD., priority 2020, published 2024).
